{"source": "ChEMBL document CHEMBL1687754", "about": "“Chip calorimetry for fast and reliable evaluation of bactericidal and bacteriostatic treatments of biofilms” (2010)", "key": {"[1]": {"tested_on": "Klebsiella pneumoniae", "test": "Antibacterial activity against Klebsiella pneumoniae", "type": "functional"}, "[2]": {"tested_on": "Pseudomonas aeruginosa", "test": "Antibacterial activity against Pseudomonas aeruginosa", "type": "functional"}, "[3]": {"tested_on": "Pseudomonas putida", "test": "Effect on Pseudomonas putida PAW340 biofilms assessed as heat production at 3 ug/ml by Chip calorimetry", "type": "functional"}, "[4]": {"tested_on": "Pseudomonas putida", "test": "Effect on Pseudomonas putida PAW340 biofilms assessed as heat production at 70 ug/ml by Chip calorimetry", "type": "functional"}, "[5]": {"tested_on": "Staphylococcus aureus", "test": "Antibacterial activity against Staphylococcus aureus", "type": "functional"}, "[6]": {"tested_on": "Pseudomonas putida", "test": "Effect on Pseudomonas putida PAW340 biofilms assessed as heat production at 250 ug/ml by Chip calorimetry", "type": "functional"}, "[7]": {"tested_on": "Escherichia coli", "test": "Antibacterial activity against Escherichia coli", "type": "functional"}, "[8]": {"tested_on": "Pseudomonas putida", "test": "Inactivation of Pseudomonas putida PAW340 biofilms assessed as decrease in heat production at 0.5 mM by Chip calorimetry", "type": "functional, organism-based"}, "[9]": {"tested_on": "Pseudomonas putida", "test": "Inactivation of Pseudomonas putida PAW340 biofilms assessed as decrease in heat production at 0.5 mM within 1 hr by Chip calorimetry", "type": "functional", "parameters": "scale not given: the % may be the effect or the level left"}, "[10]": {"tested_on": "Pseudomonas putida", "test": "Inactivation of Pseudomonas putida PAW340 biofilms assessed as decrease in ATP content at 0.5 mM by Chip calorimetry", "type": "functional, organism-based"}, "[11]": {"tested_on": "Pseudomonas putida", "test": "Inactivation of Pseudomonas putida PAW340 biofilms assessed as decrease in heat production at 3 to 30 ug/ml by Chip calorimetry", "type": "functional, organism-based", "conditions": "TDE = time-dependent effect"}, "[12]": {"tested_on": "Neisseria gonorrhoeae", "test": "Antibacterial activity against Neisseria gonorrhoeae", "type": "functional"}, "[13]": {"tested_on": "Pseudomonas putida", "test": "Inactivation of Pseudomonas putida PAW340 biofilms assessed as decrease in heat production by Chip calorimetry", "type": "functional, organism-based"}, "[14]": {"tested_on": "Pseudomonas putida", "test": "Antibacterial activity against Pseudomonas putida PAW340 assessed as decrease in bacterial count at 20 to 150 ug/ml", "type": "functional, organism-based"}}, "note": "The source made the active and inactive calls. No cut-off for these calls is given here."}
{"smiles": "CN(C)[C@@H]1C(O)=C(C(N)=O)C(=O)[C@@]2(O)C(O)=C3C(=O)c4c(O)cccc4[C@@](C)(O)[C@H]3C[C@@H]12", "note": "[TETRACYCLINE]", "values": [{"measurement": "MIC", "setting": "[1]", "result": 2.5, "unit": "µg/mL"}, {"measurement": "MIC", "setting": "[2]", "result": 6.25, "unit": "µg/mL"}, {"measurement": "Activity", "setting": "[3]", "result": 100, "unit": "%"}, {"measurement": "Activity", "setting": "[4]", "result": 118, "unit": "%"}, {"measurement": "MIC", "setting": "[5]", "result": 0.15, "unit": "µg/mL"}, {"measurement": "Activity", "setting": "[6]", "result": 100, "unit": "%"}, {"measurement": "MIC", "setting": "[7]", "result": 0.07, "unit": "µg/mL"}]}
{"smiles": "O=[N+]([O-])c1ccc(O)c([N+](=O)[O-])c1", "note": "[2,4-DINITROPHENOL]", "values": [{"measurement": "Activity", "setting": "[8]", "result": "Active"}, {"measurement": "Activity", "setting": "[9]", "result": 90, "unit": "%"}, {"measurement": "Activity", "setting": "[10]", "result": "Active"}]}
{"smiles": "NC[C@H]1O[C@H](O[C@H]2[C@H](O)[C@@H](O[C@H]3O[C@H](CO)[C@@H](O)[C@H](N)[C@H]3O)[C@H](N)C[C@@H]2N)[C@H](O)[C@@H](O)[C@@H]1O", "note": "[KANAMYCIN]", "values": [{"measurement": "Activity", "setting": "[11]", "result": "tde"}, {"measurement": "MIC", "setting": "[12]", "result": 2, "unit": "µg/mL"}]}
{"smiles": "O=C(O)c1cn(C2CC2)c2cc(N3CCNCC3)c(F)cc2c1=O", "values": [{"measurement": "Activity", "setting": "[13]", "result": "Dose-dependent effect"}, {"measurement": "Activity", "setting": "[14]", "result": "Active"}]}
